Assay results taken from patent US11414387B2, “Oxoacridinyl acetic acid derivatives and methods of use” (Stingthera, Inc., priority 2017, dated 2022).

How the values were obtained:
mSTING-CTD = mSTING-CTD (Mus musculus (Mouse), UniProt Q3TBT3); experiment: Mouse STING protein FP competition concentration response assay; format: binding
Description: (§1) A validated STING ligand, such as c-di-GMP, which is labeled with a read-out signal (e.g., a fluorescence signal such as fluorescein), is mixed with STING-CTD (e.g., mouse STING-CTD or human STING-CTD) with or without the presence of a compound of the present application. Changes in the read-out signal are measured (e.g., by fluorescence anisotropy) to determine the binding of the compound to STING-CTD.
(§2) Fluorescein labeled c-di-GMP was mixed with mSTING-CTD with or without the presence of a compound of the present application in PBS in black 384-well plates (10 μL per well). The fluorescence anisotropy was determined on a PerkinElmer EnVisions multi-mode plate reader. The plate can be read immediately after mixing the reagents or after a few hours without change of signals.
• 1) 6×his-sumo-mSTING (Supplier: HDB) • 2) 2′-Fluo-AHC-c-di GMP (BIOLOG #F009) • 3) 23-cGAMP (BIOLOG #C161) • 4) DMXAA (InvivoGen #tlrl-dmx) • 5) DMSO (Sigma. #D5879-100 mL) • 6) 10×PBS(HDB #MCP-020) • 7) Assay plate, 384-well black plate, solid black bottom (Greiner #784076) • 8) Compound dilution intermediate plate, 384 LDV plate (Labcyte #LP-0200) • 9) Liquid handler, ECHO550 (Labcyte) • 10) Liquid handler, Bravo (Aglient) • 11) Reader, Envision (PerkinElmer) • 12) Centrifuge (Eppendorf) • 13) Multichannel Pipette (Raining) • 14) 10 ml Reservoir (Corning) • 15) 15 ml centrifuge tube (Corning) • 16) Adhesive Plate seals (BioRad) Compound Preparation • a) Containers of each compound were centrifuged at 1000 rpm for 5 min. • b) Compounds were dissolved in DMSO at 30 mM. • c) Compounds were sufficiently vortexed, and centrifuged at 1000 rpm for 1 min. • d) 16 uL of the compound solution was transferred into a LDV Compound Plate. • e) 2-fold serial dilutions of the compound solution were made with DMSO, and 14 concentrations were made in the 384-well LDV Compound Plate. • f) The LDV plate was spun at 1000 rpm for 60 sec and sealed with foil (stored at −20° C. if not used immediately). • g) 335 nL of each compound from the LDV Compound Plate was transferred to Assay Plate (ECHO550). Probe Preparation • a) 200 uM probe stock (2′-Fluo-AHC-c-diGMP) was diluted by dd2O to 6 uM working concentration. • b) 10-12 uL 6 uM working solution of probe was transferred into the LDV plate. • c) 50 nL per well 6 uM working solution of probe was transferred from the LDV plate to each well of the empty Assay Plate (Greiner 784076) by ECHO550 Buffer mode. • d) Probe final concentration was 30 nM when assay system was 10 uL. • e) The Assay Plate was spun at 1000 rpm for 1 min. Compound Addition • a) After the LDV Compound Plate was prepared, 100 nL compound (ECHO550 DMSO mode) was transferred from the LDV Compound Plate into the Assay Plate (Greiner 784076) containing 50 nL probe in each well according to the Assay Plate layout. • b) DMSO final concentration was 1% when assay system was 10 uL. • c) The Assay Plate was spun at 1000 rpm for 1 min. Protein Addition • a) Aliquot of 6×his-sumo-mSTING protein was thawed on ice, briefly to generate uniform solution. • b) 66 uM stock protein was diluted in 1×PBS assay buffer to generate 8 uM final solutions. • c) For test compound and ZPE wells, 10 μL per well of 8 uM protein solutions was added into the Assay Plate containing both the probe and test compounds or DMSO using multichannel pipette. • d) For HPE wells, 10 µL/well of 1×PBS assay buffer instead of protein was added into the Assay Plate containing both the probe and DMSO using multichannel pipette. • e) The Assay Plate was spun at 1000 rpm for 1 min. • f) The Assay Plate was incubated at r.t. for 10-20 min.
(§3) The EnVision plate reader was used to record the FA value of each well immediately after mixing the reagents or after a few hours without change of signals.
(§4) The raw data and calculated data (Fluorescence anisotropy (FA)) was exported from the EnVision reader. […]

hSTING-CTD = hSTING-CTD (Homo sapiens (Human), UniProt Q86WV6); experiment: Human STING protein FP competition concentration response assay; format: binding
hSTING-CTD, sequence (Q86WV6 135-379): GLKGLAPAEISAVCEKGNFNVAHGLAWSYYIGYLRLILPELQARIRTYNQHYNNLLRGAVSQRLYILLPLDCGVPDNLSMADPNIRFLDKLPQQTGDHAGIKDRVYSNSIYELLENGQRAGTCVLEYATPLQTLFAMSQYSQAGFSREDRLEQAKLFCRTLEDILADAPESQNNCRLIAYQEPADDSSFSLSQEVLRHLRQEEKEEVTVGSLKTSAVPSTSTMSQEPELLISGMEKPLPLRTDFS
Description: as §1
as §2, with “c-di-GMP, a validated STING ligand,” for “c-di-GMP”, “recombinant hSTING-CTD in a homogenous assay format” for “mSTING-CTD”, “application (titrated)” for “application”
• 1) hSTING (Supplier: HDB) • 2) 2′-Fluo-AHC-c-di GMP (BIOLOG #F009) • 3) 2′3′-cGAMP (BIOLOG #C161) • 4) DMXAA (InvivoGen #tlrl-dmx) • 5) DMSO (Sigma, #D5879-100 mL) • 6) 10×PBS(HDB #MCP-020) • 7) Assay plate, 384-well black plate, solid black bottom (Greiner #784076) • 8) Compound dilution intermediate plate, 384 LDV plate (Labcyte #LP-0200) • 9) Liquid handler, ECHO550 (Labcyte) • 10) Liquid handler, Bravo (Aglient) • 11) Reader, Envision (PerkinElmer) • 12) Centrifuge (Eppendorf) • 13) Multichannel Pipette (Raining) • 14) 10 ml Reservoir (Corning) • 15) 15 ml centrifuge tube (Corning) • 16) Adhesive Plate seals (BioRad) Compound Preparation • a) Containers of each compound were centrifuged at 1000 rpm for 5 min. • b) Compounds were dissolved in DMSO at 30 mM. • c) Compounds were sufficiently vortexed, and centrifuged at 1000 rpm for 1 min. • d) 16 uL of the compound solution was transferred into a LDV Compound Plate. • e) 2-fold serial dilutions of the compound solution were made with DMSO, and 14 concentrations were made in the 384-well LDV Compound Plate. • f) The LDV plate was spun at 1000 rpm for 60 sec and sealed with foil (stored at −20° C. if not used immediately). • g) 335 nL of each compound from the LDV Compound Plate was transferred to Assay Plate (ECHO550). Probe Preparation • a) 200 uM probe stock (2′-Fluo-AHC-c-diGMP) was diluted by ddH2O to 6 uM working concentration. • b) 10-12 uL 6 uM working solution of probe was transferred into the LDV plate. • c) 50 nL per well 6 uM working solution of probe was transferred from the LDV plate to each well of the empty Assay Plate (Greiner 784076) by ECHO550 Buffer mode. • d) Probe final concentration was 30 nM when assay system was 10 uL. • e) The Assay Plate was spun at 1000 rpm for 1 min. Compound Addition • a) After the LDV Compound Plate was prepared, 335 nL compound (ECHO550 DMSO mode) was transferred from the LDV Compound Plate into the Assay Plate (Greiner 784076) containing 50 nL probe in each well according to the Assay Plate layout. • b) DMSO final concentration was 3.35% when assay system was 10 uL. • c) The Assay Plate was spun at 1000 rpm for 1 min. Protein Addition • a) Aliquot of hSTING protein was thawed on ice, briefly to generate uniform solution. • b) 55 uM stock protein was diluted in 1×PBS assay buffer to generate 10 uM final solutions. • c) For test compound and ZPE wells, 10 μL per well of 10 uM protein solutions was added into the Assay Plate containing both the probe and test compounds or DMSO using multichannel pipette. • d) For HPE wells, 10 μL/well of 1×PBS assay buffer instead of protein was added into the Assay Plate containing both the probe and DMSO using multichannel pipette. • e) The Assay Plate was spun at 1000 rpm for Imin. • f) The Assay Plate was incubated at r.t. for 10-20 min.
as §3, §4

mSTING-CTD, sequence (Q3TBT3 134-378): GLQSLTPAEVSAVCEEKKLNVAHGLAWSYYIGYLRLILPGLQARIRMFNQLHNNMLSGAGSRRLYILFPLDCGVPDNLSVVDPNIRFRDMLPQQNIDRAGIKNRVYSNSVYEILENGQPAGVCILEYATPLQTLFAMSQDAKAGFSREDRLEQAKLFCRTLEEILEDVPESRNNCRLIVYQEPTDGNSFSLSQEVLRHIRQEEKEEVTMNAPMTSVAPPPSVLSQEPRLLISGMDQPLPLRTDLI

Row | IC50 (mSTING-CTD) [µM] | IC50 (hSTING-CTD) [µM] | SMILES
1 | > 100 | – | COc1cccc2c1c(=O)c1ccc(C)cc1n2CC(=O)O [Compound 32]
2 | 10 to 50 | < 100 | CC(C)(C)c1ccc2c(=O)c3ccc(Cl)c(Cl)c3n(CC(=O)O)c2c1 [Compound 47]
3 | 10 to 50 | < 100 | Cc1cccc(-c2ccc3c(c2)c(=O)c2ccc(Cl)c(Cl)c2n3CC(=O)O)c1 [Compound 68]
4 | 10 to 50 | – | O=C(O)Cn1c2ccccc2c(=O)c2ccc(F)cc21 [Compound 4]
5 | 10 to 50 | – | O=C(O)Cn1c2ccccc2c(=O)c2ccc(Br)cc21 [Compound 18]
6 | 10 to 50 | < 100 | CC(C)c1ccc2c(=O)c3ccc(Cl)c(Cl)c3n(CC(=O)O)c2c1 [Compound 81]
7 | 10 to 50 | > 1000 | Cc1cccc2c(=O)c3ccccc3n(CC(=O)O)c12 [Compound 7]
8 | 10 to 50 | 100 to 500 | Cc1ccc2c(=O)c3ccc(Br)cc3n(CC(=O)O)c2c1 [Compound 53]
9 | 50 to 100 | 500 to 1000 | Cc1ccc2c(=O)c3ccccc3n(CC(=O)O)c2c1C [Compound 99]
10 | 10 to 50 | 100 to 500 | Cc1ccc2c(=O)c3ccc(Cl)c(Cl)c3n(CC(=O)O)c2c1 [Compound 29]
11 | 10 to 50 | 500 to 1000 | Cc1ccc2c(=O)c3ccc(Cl)cc3n(CC(=O)O)c2c1 [Compound 17]
12 | 10 to 50 | > 1000 | Cc1ccc2c(c1)c(=O)c1ccccc1n2CC(=O)O [Compound 10]
13 | 10 to 50 | – | Cc1ccc2c(=O)c3c(F)cccc3n(CC(=O)O)c2c1 [Compound 36]
14 | < 10 | 500 to 1000 | Cc1ccc2c(=O)c3cccc(C)c3n(CC(=O)O)c2c1 [Compound 11]
15 | 10 to 50 | > 1000 | O=C(O)Cn1c2ccccc2c(=O)c2cccc(Cl)c21 [Compound 8]
16 | 10 to 50 | > 1000 | Cc1ccc2c(=O)c3ccccc3n(CC(=O)O)c2c1Cl [Compound 19]
17 | 10 to 50 | > 1000 | Cc1ccc2c(=O)c3ccc(C)cc3n(CC(=O)O)c2c1 [Compound 15]
18 | 10 to 50 | – | Cc1ccc2c(=O)c3c(Cl)cccc3n(CC(=O)O)c2c1 [Compound 16]
19 | 10 to 50 | 100 to 500 | CN(C)c1ccc2c(=O)c3ccc(Cl)c(Cl)c3n(CC(=O)O)c2c1 [Compound 71]
20 | 10 to 50 | – | Cc1ccc2c(=O)c3ccccc3n(CC(=O)O)c2c1 [Compound 6]
21 | < 10 | 500 to 1000 | Cc1ccc2c(=O)c3cccc(Cl)c3n(CC(=O)O)c2c1 [Compound 12]
22 | 10 to 50 | – | Cc1ccc2c(=O)c3ccc(F)cc3n(CC(=O)O)c2c1 [Compound 33]
23 | 10 to 50 | – | O=C(O)Cn1c2ccccc2c(=O)c2ccc(Cl)cc21 [Compound 5]
24 | 10 to 50 | – | Cc1ccc2c(=O)c3c(C)cccc3n(CC(=O)O)c2c1 [Compound 14]

Second part, the molecule before the results:

Row | SMILES | IC50 (mSTING-CTD) [µM] | IC50 (hSTING-CTD) [µM]
25 | O=C(O)Cn1c2ccccc2c(=O)c2c(Cl)cccc21 [Compound 2] | 50 to 100 | –
26 | O=C(O)Cn1c2cc(N3CCOCC3)ccc2c(=O)c2ccc(Cl)c(Cl)c21 [Compound 60] | 10 to 50 | < 100
27 | O=C(O)Cn1c2ccccc2c(=O)c2cc(CCc3ccccc3)ccc21 [Compound 23] | 10 to 50 | 100 to 500
28 | Cc1ccc2c(=O)c3cc(CCc4ccccc4C)ccc3n(CC(=O)O)c2c1 [Compound 75] | > 100 | 100 to 500
29 | COc1ccc2c(=O)c3c(C)cccc3n(CC(=O)O)c2c1 [Compound 35] | 10 to 50 | –
30 | O=C(O)Cn1c2ccccc2c(=O)c2ccc(CCc3ccccc3)cc21 [Compound 26] | < 10 | 500 to 1000
31 | O=C(O)Cn1c2cc(N3CCCCC3)ccc2c(=O)c2ccc(Cl)c(Cl)c21 [Compound 61] | 10 to 50 | < 100
32 | Cc1cccc2c1c(=O)c1ccccc1n2CC(=O)O [Compound 3] | 10 to 50 | –
33 | Cc1c(C2=CCCCC2)ccc2c(=O)c3ccccc3n(CC(=O)O)c12 [Compound 28] | 10 to 50 | 500 to 1000
34 | O=C(O)Cn1c2ccccc2c(=O)c2c(F)cccc21 [Compound 1] | 50 to 100 | –
35 | O=C(O)Cn1c2ccccc2c(=O)c2ccc(C#Cc3ccccc3)cc21 [Compound 25] | 10 to 50 | –
36 | O=C(O)Cn1c2ccccc2c(=O)c2cc(C#Cc3ccccc3)ccc21 [Compound 22] | 10 to 50 | 500 to 1000
37 | Cc1c(CCc2ccccc2)ccc2c(=O)c3ccccc3n(CC(=O)O)c12 [Compound 27] | 50 to 100 | > 1000
38 | O=C(O)Cn1c2ccccc2c(=O)c2c(Br)cccc21 [Compound 20] | 50 to 100 | –
39 | CC1(C)CCC=C(c2ccc3c(c2)c(=O)c2ccc(Cl)c(Cl)c2n3CC(=O)O)C1 [Compound 67] | > 100 | 500 to 1000
40 | O=C(O)Cn1c2ccccc2c(=O)c2cc(Br)ccc21 [Compound 21] | > 100 | –
